Literature values as cited in patent WO2006030898A1, “Aldose reductase inhibitor” (Suntory Ltd, priority 2004, dated 2006).

Molecular target: aldose reductase (Homo sapiens, UniProt P15121)
Conditions: flavonoid glycosides; no own test described

## O=c1c(O[C@@H]2O[C@H](CO)[C@@H](O)[C@H](O)[C@H]2O)c(-c2ccc(O)c(O)c2)oc2cc(O)cc(O)c12 [isoquercitrin]
  aldose reductase inhibitory action (in words): have an aldose reductase inhibitory action
